From PubChem BioAssay (NCI)
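1) Cells in 96-well plates. 2) Compound, 48 h, 5 concentrations. 3) Linear interpolation between surrounding doses. 4) Unreached endpoint = highest concentration. GI50 marks 50% less growth. TGI denotes the concentration required for complete inhibition of growth.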

Key:
Assay in all cases: growth of human tumour cells (NCI), 48 h
LOX IMVI melanoma = system: LOX IMVI melanoma
HT29 colon = system: HT29 colon
CCRF-CEM leukemia = system: CCRF-CEM leukemia
SNB-19 CNS = system: SNB-19 CNS
KM12 colon = system: KM12 colon
SN12C renal = system: SN12C renal
NCI/ADR-RES ovarian = system: NCI/ADR-RES ovarian
CAKI-1 renal = system: CAKI-1 renal
MCF7 breast = system: MCF7 breast
HS 578T breast = system: HS 578T breast
HCT-116 colon = system: HCT-116 colon
SW-620 colon = system: SW-620 colon
MALME-3M melanoma = system: MALME-3M melanoma
RXF 393 renal = system: RXF 393 renal
OVCAR-4 ovarian = system: OVCAR-4 ovarian
U251 CNS = system: U251 CNS
HL-60(TB) leukemia = system: HL-60(TB) leukemia
HOP-92 NSCLC = system: HOP-92 NSCLC
M14 melanoma = system: M14 melanoma
COLO 205 colon = system: COLO 205 colon
NCI-H460 lung = system: NCI-H460 lung
HCT-15 colon = system: HCT-15 colon
T-47D breast = system: T-47D breast
OVCAR-8 ovarian = system: OVCAR-8 ovarian
OVCAR-5 ovarian = system: OVCAR-5 ovarian
NCI-H522 lung = system: NCI-H522 lung
SF-268 CNS = system: SF-268 CNS
A498 renal = system: A498 renal
K-562 leukemia = system: K-562 leukemia
MDA-MB-468 breast = system: MDA-MB-468 breast
HCC-2998 colon = system: HCC-2998 colon
SK-MEL-5 melanoma = system: SK-MEL-5 melanoma
SK-OV-3 ovarian = system: SK-OV-3 ovarian
BT-549 breast = system: BT-549 breast
SNB-75 CNS = system: SNB-75 CNS
UO-31 renal = system: UO-31 renal
UACC-62 melanoma = system: UACC-62 melanoma
NCI-H226 lung = system: NCI-H226 lung
TK-10 renal = system: TK-10 renal
NCI-H23 lung = system: NCI-H23 lung
SF-295 CNS = system: SF-295 CNS
MDA-MB-231 breast = system: MDA-MB-231 breast
UACC-257 melanoma = system: UACC-257 melanoma
DU-145 prostate = system: DU-145 prostate
OVCAR-3 ovarian = system: OVCAR-3 ovarian
PC-3 prostate = system: PC-3 prostate
A549 NSCLC = system: A549 NSCLC
MOLT-4 leukemia = system: MOLT-4 leukemia
SR leukemia = system: SR leukemia
RPMI-8226 leukemia = system: RPMI-8226 leukemia
HOP-62 NSCLC = system: HOP-62 NSCLC
IGROV1 ovarian = system: IGROV1 ovarian
MDA-MB-435 = system: MDA-MB-435
786-0 renal = system: 786-0 renal
SK-MEL-28 melanoma = system: SK-MEL-28 melanoma
ACHN renal = system: ACHN renal
SF-539 CNS = system: SF-539 CNS
EKVX NSCLC = system: EKVX NSCLC
SK-MEL-2 melanoma = system: SK-MEL-2 melanoma

O=C(CN1CCN(c2ncnc3c2cnn3-c2ccccc2)CC1)Nc1nncs1
GI50 (LOX IMVI melanoma): 1.49 µM
TGI (LOX IMVI melanoma): 2.81 µM
GI50 (HT29 colon): 6.91 µM
TGI (HT29 colon): 19.3 µM
GI50 (CCRF-CEM leukemia): 2.55 µM
TGI (CCRF-CEM leukemia): 7.17 µM
GI50 (SNB-19 CNS): 12.2 µM
TGI (SNB-19 CNS): 24.6 µM
GI50 (KM12 colon): 4.46 µM
TGI (KM12 colon): 15.9 µM
GI50 (SN12C renal): 1.94 µM
TGI (SN12C renal): 5.06 µM
GI50 (NCI/ADR-RES ovarian): 1.77 µM
TGI (NCI/ADR-RES ovarian): 3.69 µM
GI50 (CAKI-1 renal): 1.6 µM
TGI (CAKI-1 renal): 2.97 µM
GI50 (MCF7 breast): 4.32 µM
TGI (MCF7 breast): 18 µM
GI50 (HS 578T breast): 12.4 µM
TGI (HS 578T breast): 63 µM
GI50 (HCT-116 colon): 3.75 µM
TGI (HCT-116 colon): 14.5 µM
GI50 (SW-620 colon): 4.99 µM
TGI (SW-620 colon): 16.1 µM
GI50 (MALME-3M melanoma): 1.69 µM
TGI (MALME-3M melanoma): 3.3 µM
GI50 (RXF 393 renal): 1.68 µM
TGI (RXF 393 renal): 3.31 µM
GI50 (OVCAR-4 ovarian): 10.3 µM
TGI (OVCAR-4 ovarian): 28.1 µM
GI50 (U251 CNS): 1.92 µM
TGI (U251 CNS): 3.99 µM
GI50 (HL-60(TB) leukemia): 10.4 µM
TGI (HL-60(TB) leukemia): 39.5 µM
GI50 (HOP-92 NSCLC): 1.57 µM
TGI (HOP-92 NSCLC): 3.46 µM
GI50 (M14 melanoma): 4.17 µM
TGI (M14 melanoma): 16.2 µM
GI50 (COLO 205 colon): 14 µM
TGI (COLO 205 colon): 27 µM
GI50 (NCI-H460 lung): 4.25 µM
TGI (NCI-H460 lung): 14.7 µM
GI50 (HCT-15 colon): 1.79 µM
TGI (HCT-15 colon): 3.42 µM
GI50 (T-47D breast): 7.93 µM
TGI (T-47D breast): 24.1 µM
GI50 (OVCAR-8 ovarian): 1.93 µM
TGI (OVCAR-8 ovarian): 4.02 µM
GI50 (OVCAR-5 ovarian): 6.41 µM
TGI (OVCAR-5 ovarian): 19.3 µM
GI50 (NCI-H522 lung): 1.62 µM
TGI (NCI-H522 lung): 3.09 µM
GI50 (SF-268 CNS): 4.79 µM
TGI (SF-268 CNS): 19.3 µM
GI50 (A498 renal): 18.4 µM
TGI (A498 renal): 35 µM
GI50 (K-562 leukemia): 7.91 µM
TGI (K-562 leukemia): 36.6 µM
GI50 (MDA-MB-468 breast): 3.05 µM
TGI (MDA-MB-468 breast): 13.7 µM
GI50 (HCC-2998 colon): 13.6 µM
TGI (HCC-2998 colon): 26.4 µM
GI50 (SK-MEL-5 melanoma): 10.2 µM
TGI (SK-MEL-5 melanoma): 21.9 µM
GI50 (SK-OV-3 ovarian): 12.5 µM
TGI (SK-OV-3 ovarian): 25 µM
GI50 (BT-549 breast): 1.55 µM
TGI (BT-549 breast): 3.02 µM
GI50 (SNB-75 CNS): 15.1 µM
TGI (SNB-75 CNS): 30.5 µM
GI50 (UO-31 renal): 1.17 µM
TGI (UO-31 renal): 2.39 µM
GI50 (UACC-62 melanoma): 4.97 µM
TGI (UACC-62 melanoma): 18.7 µM
GI50 (NCI-H226 lung): 1.84 µM
TGI (NCI-H226 lung): 5.14 µM
GI50 (TK-10 renal): 3.09 µM
TGI (TK-10 renal): 6.14 µM
GI50 (NCI-H23 lung): 1.74 µM
TGI (NCI-H23 lung): 3.57 µM
GI50 (SF-295 CNS): 10.3 µM
TGI (SF-295 CNS): 22.3 µM
GI50 (MDA-MB-231 breast): 1.78 µM
TGI (MDA-MB-231 breast): 3.87 µM
GI50 (UACC-257 melanoma): 14.1 µM
TGI (UACC-257 melanoma): 28.1 µM
GI50 (DU-145 prostate): 1.8 µM
TGI (DU-145 prostate): 3.24 µM
GI50 (OVCAR-3 ovarian): 1.93 µM
TGI (OVCAR-3 ovarian): 3.67 µM
GI50 (PC-3 prostate): 4.33 µM
TGI (PC-3 prostate): 17.1 µM
GI50 (A549 NSCLC): 2.07 µM
TGI (A549 NSCLC): 4.31 µM
GI50 (MOLT-4 leukemia): 4.08 µM
TGI (MOLT-4 leukemia): 31.3 µM
GI50 (SR leukemia): 2.11 µM
TGI (SR leukemia): 5.26 µM
GI50 (RPMI-8226 leukemia): 2.83 µM
TGI (RPMI-8226 leukemia): 8.67 µM
GI50 (HOP-62 NSCLC): 1.62 µM
TGI (HOP-62 NSCLC): 3.29 µM
GI50 (IGROV1 ovarian): 2.68 µM
TGI (IGROV1 ovarian): 7.65 µM
GI50 (MDA-MB-435): 13.6 µM
TGI (MDA-MB-435): 27.5 µM
GI50 (786-0 renal): 1.99 µM
TGI (786-0 renal): 3.56 µM
GI50 (SK-MEL-28 melanoma): 13.9 µM
TGI (SK-MEL-28 melanoma): 26.9 µM
GI50 (ACHN renal): 1.79 µM
TGI (ACHN renal): 3.18 µM
GI50 (SF-539 CNS): 1.76 µM
TGI (SF-539 CNS): 3.32 µM
GI50 (EKVX NSCLC): 2.9 µM
TGI (EKVX NSCLC): 11.1 µM
GI50 (SK-MEL-2 melanoma): 12.6 µM
TGI (SK-MEL-2 melanoma): 25.8 µM
